Values of other authors, collected in patent US20130030007A1, “Obesity Small Molecules” (AKRON MOLECULES GMBH, priority 2010, published 2013).
Counter-ions that a name gives are not always drawn. Like-named read-outs stand apart in the source and are kept apart here. Starred links: 1 amine or outer side, 2 acyl side, 3 side chain; linkers in the order of their positions; H or OH if unused. Positions of bridges follow the written chain, without caps; N, C: chain ends. Non-standard residues stand in square brackets, D forms with d. Residues, ends and D or L forms follow the SMILES beside them. *: point of attachment. Adda = CO[C@@H](Cc1ccccc1)[C@@H](C)/C=C(C)/C=C/[C@H](N[*:1])[C@H](C)C(=O)[*:2]; dAsp(3S-Me) = C[C@H](C(=O)[*:3])[C@@H](N[*:1])C(=O)[*:2]; d(γGlu) = O=C(O)[C@@H](CCC(=O)[*:2])N[*:1]; Cbz = O=C(OCc1ccccc1)*; NMeDha = C=C(NC)C(=O)O

System: human ortholog of Drosophila obesity gene
Set-up: key: O: Obesity - obesity pathway interaction; B: validated binding partner
Conditions: cited from earlier work
[1] = interaction of the small molecule with the human ortholog(s) / Drosophila gene(s) listed in the same table line

SMILES	Type: Type of interaction	Type: Type of interaction [1]
CCCCCCCNS(=O)(=O)c1cccc2c(Cl)cccc12	B	–
COc1ccc(C2=N[C@@H](c3ccc(Cl)cc3)[C@@H](c3ccc(Cl)cc3)N2C(=O)N2CCNC(=O)C2)c(OC(C)C)c1 (racemic) [nutlin 3]	O	–
Nc1nc2[nH]cc(CCc3ccc(C(=O)N[C@@H](CCC(=O)O)C(=O)O)cc3)c2c(=O)[nH]1 [LY231514]	O	–
C=C1C(=O)N[C@H](C)C(=O)N[C@@H](CC(C)C)C(=O)N[C@@H](C(=O)O)[C@H](C)C(=O)N[C@@H](CCCNC(=N)N)C(=O)N[C@@H](/C=C/C(C)=C/[C@H](C)[C@H](Cc2ccccc2)OC)[C@H](C)C(=O)N[C@@H](C(=O)O)CCC(=O)N1C [MCYST-LR] (R[Adda][d(γGlu)][NMeDha][dA]L[dAsp(3S-Me)]-OH; lactam N-7)	O	–
CS(=O)(=O)c1cc(F)cc2c3c(n(Cc4ccc(Cl)cc4)c12)[C@@H](CC(=O)O)CC3 [MK-0524]	B	–
O=c1c(O)c(-c2ccc(O)cc2O)oc2cc(O)cc(O)c12 [MORIN]	–	O
COc1ccc(Cl)cc1C(=O)NCCc1ccc(S(=O)(=O)NC(=O)NC2CCCCC2)cc1 [Malix]	–	B
CSC[C@H]1O[C@@H](n2cnc3c(N)ncnc32)[C@H](O)[C@@H]1O [MeSAdo]	B	–
CCCC(C)C1(CC)C(=O)NC(=O)NC1=O (stereo not drawn) [Mebumal]	O	–
CCC(=O)O[C@@H]1CC(=O)O[C@H](C)C/C=C/C=C/[C@H](O)[C@H](C)C[C@H](CC=O)[C@H](O[C@@H]2O[C@H](C)[C@@H](O[C@H]3C[C@@](C)(O)[C@@H](OC(=O)CC)[C@H](C)O3)[C@H](N(C)C)[C@H]2O)[C@H]1OC [Medemycin]	–	O
CC(=O)O[C@]1(C(C)=O)CC[C@H]2[C@@H]3C[C@H](C)C4=CC(=O)CC[C@]4(C)[C@H]3CC[C@@]21C [Medroxyprogesterone 17-Acetate]	B	–
COc1ccc2[nH]cc(CCNC(C)=O)c2c1 [Melatol]	–	B
CC12CC3CC(C)(C1)CC(N)(C3)C2 [Memantine]	–	B
CC(C)=CCC/C(C)=C/CC/C(C)=C/CC/C(C)=C/CC1=C(C)C(=O)c2ccccc2C1=O [Menatetrenone]	–	O
CCC1(c2ccccc2)NC(=O)N(C)C1=O (stereo not drawn) [Mephenytoin]	–	B
CCCC(C)(COC(N)=O)COC(N)=O [Meprobamate]	O	–
CNC[C@H](O)c1cccc(O)c1 [Mesaton]	B	–
CN[C@@H](C)Cc1ccccc1 [Meth]	O	–
COc1ccc2c(c1)C13CCCCC1C(C2)N(C)CC3 (stereo not drawn) [Methorphan]	O	–
COc1c2occc2cc2ccc(=O)oc12 [Methoxsalen]	–	B
CSc1ncnc2c1ncn2[C@@H]1O[C@H](CO)[C@@H](O)[C@H]1O [Methylthioinosine]	B	–
CC(C)(C(=O)c1cccnc1)c1cccnc1 [Metopiron]	–	O
C[C@]1(O)CC[C@H]2[C@@H]3CCC4=CC(=O)CCC4=C3C=C[C@@]21C [Metribolone]	B	–
c1cncnc1 [Miazine]	B	–

SMILES	Type: Type of interaction	Type: Type of interaction [1]
CCCOC(C(=O)OC1CCN(C)CC1)(c1ccccc1)c1ccccc1 [Mictonorm]	B	–
Cc1ncc2n1-c1ccc(Cl)cc1C(c1ccccc1F)=NC2 [Midazolam]	O	–
CC#C[C@]1(O)CC[C@H]2[C@@H]3CCC4=CC(=O)CCC4=C3[C@@H](c3ccc(N(C)C)cc3)C[C@@]21C [Mifepristone]	–	B
NC(Cn1ccc(=O)c(O)c1)C(=O)O (stereo not drawn) [Mimosine]	–	O
O=C1c2c(O)ccc(O)c2C(=O)c2c(NCCNCCO)ccc(NCCNCCO)c21 [Mitoxantrone]	–	O
CCOC(=O)[N-]c1cn(N2CCOCC2)n[o+]1 [Molsidomine]	–	B
CC[C@@]1([C@@H]2O[C@@H]([C@H]3O[C@@](O)(CO)[C@H](C)C[C@@H]3C)C[C@@H]2C)CC[C@H]([C@]2(C)CC[C@]3(C[C@H](O)[C@@H](C)[C@@H]([C@@H](C)[C@@H](OC)[C@H](C)C(=O)O)O3)O2)O1 [Monensin]	–	O
C[C@@H]1C[C@H]2O[C@@H]2/C=C\C=C\C(=O)Cc2c(Cl)c(O)cc(O)c2C(=O)O1 [Monorden]	B	–
C/C=C1/C(=O)N[C@@H](C(=O)O)[C@H](C)C(=O)N[C@@H](C(C)C)C(=O)N[C@@H](/C=C/C(C)=C/[C@H](C)[C@H](Cc2ccccc2)OC)[C@H](C)C(=O)N[C@@H](C(=O)O)CCC(=O)N1C [Motuporin]	O	–
Cn1cnc([N+](=O)[O-])c1Sc1ncnc2nc[nH]c12 [Muran]	O	–
C[C@@H]1O[C@H](C[N+](C)(C)C)C[C@H]1O [Muscarine]	B	–
O=C(Nc1cc2ccccc2cn1)c1ccccc1NCc1ccncc1 [N-3-isoquinolinyl-2-((4-pyridinylmethyl)amino)benzamide]	–	O
Nc1ccc(CCN2CN(c3ccccc3)C3(CCN(CCCC(=O)c4ccc(F)cc4)CC3)C2=O)cc1 [N-(4-aminophenethyl)spiroperidol]	B	–
Nc1ccc(N2C(=O)C=CC2=O)cc1 [N-(4-aminophenyl)maleimide]	–	O
N#Cc1cccc2sc(C(=O)NC(=N)N)cc12 [N-(4-cyano-benzo (b)thiophene-2-carbonyl)guanidine]	–	O
C[C@H](NC(CCCCCCCN)C(=O)O)C(=O)N1CCC[C@H]1C(=O)O (stereo partly drawn) [N-(8-amino-1-carboxyoctyl)-alanyl-proline]	–	O
O=C[C@@H]1CCCN1C(=O)[C@@H]1CCCN1C(=O)OCc1ccccc1 [N-benzyloxycarbonylprolyl-prolinal] (Cbz-Pro-Pro-aldehyde)	–	O
CC(NC(N)=O)c1cc2ccccc2s1 (stereo not drawn) [N-dehydroxyzileuton]	O	–
O=C1CC(=O)N(c2ccccc2)c2cc(Cl)ccc2N1 [N-desmethylclobazam]	B	–
CCN1C(=O)C=CC1=O [N-ethylmaleimide]	–	O
C#CCOc1ccccc1CCCCCC(=O)NS(C)(=O)=O [N-methylsulfonyl-6-(2-propargyloxyphenyl)hexanamide]	–	O
COc1ccccc1N1CCN(CC(C(=O)NC(C)(C)C)c2ccccc2)CC1 (stereo not drawn) [N-tert-butyl-3-[4-(2-methoxyphenyl)piperazin-1-yl]-2-phenylpropanamide]	B	–
CCCC(=O)[O-].[Na+] [NABU]	O	–
COc1ccccc1N1CCN(CCCCN2C(=O)c3ccccc3C2=O)CC1 [NAN-190 hydrobromide]	–	B
